From patent publication EP0121856A2, “Use of pyrazolone derivatives against the growth of tumour cells and their metastases, medicaments therefor and their preparation” (BAYER AG, priority 1983, dated 1984)

How the values were obtained:
[1] = antithrombotic effect (thrombosis prophylaxis) compared with Nafazatrom; assay type: in vivo; details: for antithrombotischer Effekt: at 100-fold dose increase compared with Nafazatrom
B-16a-Zellen = assay: full metastasis model: subcutaneous injection of B-16a cells, oral treatment for 27 days, metastatic lung nodules (Beispiel 4); assay type: in vivo, C57BL/6J-Mäuse; details: for Metastasenpunkte: lungs at 28 days; for Metastasenindex: treated / control points
From the text: (§1) Wie bereits weiter oben festgestellt wurde, ist die Metastase eine einzelne Erscheinung, die durch eine Reihe komplizierter Vorgänge verursacht wird. Gegenwärtig finden zwei "Modell"-Systeme für die Untersuchung der in vivo-Metastase verbreitete Anwendung. Das erste Modellsystem umfaßt die subkutante Injektion der Tumorzellen in das Tier. Die subkutante Injektion der Tumorzellen und anschließende Entwicklung eines Primärtumors, gefolgt von spontaner Metastase, wird als "volle" Metastase betrachtet. Ein anderes Modellsystem umfaßt die Injektion der Tumorzellen durch die Schwanzvene. In Anbetracht der Komplexität der Metastase gilt die Schwanzvenen-Injektion nur als partielles Modellsystem, da es nur die Vorgänge während des letzten Teils der Metastase wiedergibt. Das Schwanzvenen-Modellsystem gilt jedoch andererseits als außerordentlich günstig im Hinblick auf eine Standardisierung der Versuchsbedindungen Lvgl. "Methods in Cancer Research", Kapitel VII, Academic Press, Inc., 19787.
Die Wirkung der Verabreichung der Pyrazolon-Verbindungen über einen längeren Zeitraum hinweg auf die Zahl der'metastatischen Lungen-Kolonien des B-16a Melanoms wurde wie nachstehend für Verbindung A beschrieben bestimmt.
10 mg Verbindung A wurden in 0,5 % Tylose aufgenommen und dann durch Behandlung mit Ultraschall (30 sec) gelöst. Die endgültige Konzentration der Substanz wurde durch Verdünnung der Lösung mit 0,5 % Tylose eingestellt. Die Substanz wurde jeden Tag neu gelöst.
Syngeneische C57BL/6J-Mäusen wurde eine Suspension von 1,0 x 10^5 B-16a-Zellen subkutan injiziert, die wie vorstehend beschrieben hergestellt wurde. Vom Tage nach der Tumorzell-Injektion ab erhielten die Mäuse 27 Tage peroral eine tägliche Einzeldosis von 0 bis 100 mg/kg der Pyrazolon-Verbindung. Die Kontroll-Mäuse und die behandelten Mäuse wurden unter identischen Bedingungen der Temperatur, Lichteinwirkungsdauer, Ernährung etc. gehalten. Die Mäuse wurden nach 28 Tagen getötet und die Zahl und Größe der metastatischen Knötchen in der Lunge bestimmt.

B-16a Tumorzellen [2] = assay: partial metastasis model: tail vein injection of B-16a tumour cells, oral pretreatment for three days (Beispiel 1); assay type: in vivo, C57BL/6J-Mäuse; details: 3 days before tail vein injection; for Metastasenpunkte: lungs 24 days after injection, score 1-10, mean ± S, n = 10; for Metastasenindex: treated group points / control group points
Procedure: Es wurden dieselben Tumor-Zellinien wie in EP-A 0 062 319 verwendet und auf die gleiche Weise in vivo gehalten. ;
Tumorzellen wurden dann aseptisch aus den Wirtsmäusen entnommen und unter Anwendung sequenzieller Collagenase-Verdauung dispergiert, wie unten beschrieben. Die entnommenen Tumoren wurden in Würfel (4 x 4 mm) zerteilt, und das gewürfelte Gewebe wurde auf 6 bis 8 sterile Polycarbonat-Erlenmeyerkolben aufgeteilt (etwa 500 mg/Kolben). Ein Anteil von 10 ml einer "Tumordispersionslösung" (TDS) wurde in jeden Kolben hinzugefügt.
Das gewürfelte Gewebe in der TDS wurde dann unter Luft in einem Dubnoff-Stoffwechsel-Schüttler (90 Schwingungen/min) dispergiert (30 min; 37°C). Die überstände wurden durch ein Seihtuch in sterile 50 ml-Rundboden-Zentrifugenröhrchen auf Polycarbonat gesammelt und 10 min (25°C) mit 900 U/min(100 g) in einem Sorvall SS-34 -Rotor zentrifugiert. Nach dem Zentrifugieren wurde die überstehende Fraktion verworfen. Das erhaltene zelluläre Material (Pellets) wurde zweimal mit MEM-Lösung gewaschen, wieder in MEM suspendiert und bei 4°C gehalten.
Zu dem verbleibenden gewürfelten Gewebe wurde ein Anteil von 10 ml TDS hinzugefügt, und das Gewebe wurde in einem Stoffwechselschüttler inkubiert, wie oben beschrieben, außer daß die Zeitdauer 60 min betrug. Das Zentrifugieren wurde wiederholt, und die wieder suspendierten Zellen wurden vereinigt.
as §1
5 mg des jeweiligen Pyrazolonderivats wurden in 0,5 % Tylose aufgenommen und dann durch Behandlung mit Ultraschall (30 sec) gelöst. Die endgültige Konzentration der Substanzen wurde durch Verdünnung der Lösungen mit 0,5 % Tylose eingestellt.
(§2) Syngeneische C57BL/6J-Mäuse wurden während eines Zeitraumes von drei Tagen mit 0,005 mg/kg bis 5 mg/kg der beiden Substanzen in 0,2 ml 0,5 % Tylose peroral behandelt. Kontrolltiere erhielten täglich 0,2 ml 0,5 % Tylose. Am vierten Tag wurde den vorbehandelten Mäusen und Kontrollmäusen ein Suspension von 5 x 10^4 B-16a Tumorzellen über die Schwanzvene injiziert. Die Kontrollmäuse und die behandelten Mäuse wurden unter identischen Bedingungen der Temperatur, Lichteinwirkungsdauer, Ernährung etc. gehalten. Die Mäuse wurden 24 Tage nach erfolgter Schwanzvenen-Injektion getötet, und ihre Lungengewebe wurden untersucht. Der Grad der Metastasierung wurde nach Zahl und Größe der makroskopisch sichtbaren Metastasen mit Punktzahlen von 1 - 10 bewertet, welche die Relation zwischen Metastasenbedeckter und - freier Organfläche ausdrücken. Dabei werden die Punktzahlen nach folgenden Rahmenkriterien vergeben: 1 = 1 - 2 gerade erkennbare Metastasen, 5 = etwa 50 % der Organoberfläche ist von Metastasen bedeckt, 10 = fast keine normale Organoberfläche sichtbar.

B-16a Tumorzellen [3] = assay: partial metastasis model: tail vein injection of B-16a tumour cells, oral treatment 3 days before and 2 days after tumour injection (Beispiel 2 and 3); assay type: in vivo, C57BL/6J-Mäuse; details: for Metastasenpunkte: score 1-10, mean ± S, n = 10; for Metastasenindex: treated / control points
Procedure: as §2
5 mg des jeweiligen Pyrazolonderivats wurden in 0,5 % Ty-lose aufgenommen und dann durch Behandlung mit Ultraschall (30 sec) gelöst. Die endgültige Konzentration der Substanzen wurde durch Verdünnung der Lösungen mit 0,5 % Tylose eingestellt.
(§3) Syngeneische C57BL/6J-Mäuse wurden während eines Zeitraumes von drei Tagen vor der Tumorinjektion und 2 Tagen nach der Tumorinjektion täglich mit 0,005 mg/kg bis 5 mg/kg der beiden Substanzen in 0,2 ml 0,5 % Tylose peroral behandelt. Kontrolltiere erhielten 0,2 ml 0,5 % Tylose. Am vierten Tag wurde den. vorbehandelten Mäusen und Kontrollmäusen eine Suspension von 5 x 10^4 B-16a Tumorzellen über die Schwanzvene injiziert.
20 mg des jeweiligen Pyrazolonderivats wurden in 0,5 % Tylose aufgenommen und dann durch Behandlung mit Ultraschall (30 sec) gelöst. Die endgültige Konzentration der Substanzen wurde durch Verdünnung der Lösungen mit 0,5 % Tylose eingestellt.
as §3, with “Syngeneische Tiere” for “Syngeneische C57BL/6J-Mäuse”, “mit 2 mg” for “mit 0,005 mg/kg”, “bis 200” for “bis 5”, “der” for “der beiden”, “wurde den” for “wurde den.”, “und Kontrolltieren” for “und Kontrollmäusen”

[4] = 0,5 mg/kg peroral daily for 27 days after s.c. tumour cell injection
[5] = 5 mg/kg peroral daily for 27 days after s.c. tumour cell injection
[6] = 25 mg/kg peroral daily for 27 days after s.c. tumour cell injection
[7] = 50 mg/kg peroral daily for 27 days after s.c. tumour cell injection
[8] = 75 mg/kg peroral daily for 27 days after s.c. tumour cell injection
[9] = 100 mg/kg peroral daily for 27 days after s.c. tumour cell injection

CC1=NN(CCOc2ccc3ccccc3c2)C(=O)C1C (stereo not shown) [3,4-Dimethyl-Derivat]
antithrombotischer Effekt [1]: kein antithrombotischer Effekt feststellbar

O=C1CC(Cc2ccccc2)=NN1CCOc1ccc2ccccc2c1 [3-Benzyl-]
antithrombotischer Effekt [1]: kein antithrombotischer Effekt feststellbar

CC(C)C1=NN(CCOc2ccc3ccccc3c2)C(=O)C1 [3-Isopropyl-]
antithrombotischer Effekt [1]: kein antithrombotischer Effekt feststellbar

CCCC1=NN(CCOc2ccc3ccccc3c2)C(=O)C1 [3-n-Propyl-]
antithrombotischer Effekt [1]: kein antithrombotischer Effekt feststellbar

CCC1=NN(CCOc2ccc3ccccc3c2)C(=O)C1 [Ethyl in der 3-Position des Nafazatroms]
Wirkung bei der Thromboseprophylaxe ([1]; fraction of the effect of Nafazatrom): 1/30

CC1=NN(CCOc2ccc3ccccc3c2)C(=O)C1C (stereo not shown) [Verbindung A]
Metastasenpunkte (B-16a-Zellen; [4]): 2,9±2,6
Metastasenindex (B-16a-Zellen; [4]): 0,66
Metastasenpunkte (B-16a-Zellen; [5]): 2,7±2,0
Metastasenindex (B-16a-Zellen; [5]): 0,61
Metastasenpunkte (B-16a-Zellen; [6]): 2,2±1,6
Metastasenindex (B-16a-Zellen; [6]): 0,50
Metastasenpunkte (B-16a-Zellen; [7]): 2,1±1,5
Metastasenindex (B-16a-Zellen; [7]): 0,48
Metastasenpunkte (B-16a-Zellen; [8]): 1,3±1,4
Metastasenindex (B-16a-Zellen; [8]): 0,30
Metastasenpunkte (B-16a-Zellen; [9]): 2,8±1,7
Metastasenindex (B-16a-Zellen; [9]): 0,64
Metastasenpunkte (B-16a Tumorzellen [2]; 0,05 mg/kg peroral): 5,3±1,5
Metastasenpunkte (B-16a Tumorzellen [2]; 0,5 mg/kg peroral): 4,1±1,4
Metastasenindex (B-16a Tumorzellen [2]; 0,05 mg/kg peroral): 0,76
Metastasenindex (B-16a Tumorzellen [2]; 0,5 mg/kg peroral): 0,59
Metastasenpunkte (B-16a Tumorzellen [2]; 0,005 mg/kg peroral): 2,6±1,1
Metastasenpunkte (B-16a Tumorzellen [2]; 5 mg/kg peroral): 2,3±1,2
Metastasenindex (B-16a Tumorzellen [2]; 0,005 mg/kg peroral): 0,37
Metastasenindex (B-16a Tumorzellen [2]; 5 mg/kg peroral): 0,33

CC1=NN(CCOc2ccc3ccccc3c2)C(=O)C1(C)C [Verbindung B]
Metastasenpunkte (B-16a Tumorzellen [2]; 0,05 mg/kg peroral): 4,2±2,6
Metastasenpunkte (B-16a Tumorzellen [2]; 0,5 mg/kg peroral): 2,6±0,8
Metastasenindex (B-16a Tumorzellen [2]; 0,05 mg/kg peroral): 0,60
Metastasenindex (B-16a Tumorzellen [2]; 0,5 mg/kg peroral): 0,37
Metastasenpunkte (B-16a Tumorzellen [2]; 0,005 mg/kg peroral): 4,9±2,2
Metastasenpunkte (B-16a Tumorzellen [2]; 5 mg/kg peroral): 4,5±2,3
Metastasenindex (B-16a Tumorzellen [2]; 0,005 mg/kg peroral): 0.70
Metastasenindex (B-16a Tumorzellen [2]; 5 mg/kg peroral): 0,64

CC1=NN(Cc2ccoc2)C(=O)C1 [Verbindung C]
Metastasenpunkte (B-16a Tumorzellen [3]; 0,05 mg/kg peroral daily): 4,3±1,7
Metastasenpunkte (B-16a Tumorzellen [3]; 0,5 mg/kg peroral daily): 4,7±2,1
Metastasenindex (B-16a Tumorzellen [3]; 0,05 mg/kg peroral daily): 0,72
Metastasenindex (B-16a Tumorzellen [3]; 0,5 mg/kg peroral daily): 0,78
Metastasenpunkte (B-16a Tumorzellen [3]; 0,005 mg/kg peroral daily): 5,2±2,0
Metastasenpunkte (B-16a Tumorzellen [3]; 5 mg/kg peroral daily): 5,3±2,0
Metastasenindex (B-16a Tumorzellen [3]; 0,005 mg/kg peroral daily): 0,87
Metastasenindex (B-16a Tumorzellen [3]; 5 mg/kg peroral daily): 0,88

CC1=NN(C(C)c2ccsc2)C(=O)C1 (stereo not shown) [Verbindung D]
Metastasenpunkte (B-16a Tumorzellen [3]; 0,05 mg/kg peroral daily): 3,8±1,8
Metastasenpunkte (B-16a Tumorzellen [3]; 0,5 mg/kg peroral daily): 3,6±1,7
Metastasenindex (B-16a Tumorzellen [3]; 0,05 mg/kg peroral daily): 0,63
Metastasenindex (B-16a Tumorzellen [3]; 0,5 mg/kg peroral daily): 0,60
Metastasenpunkte (B-16a Tumorzellen [3]; 0,005 mg/kg peroral daily): 4,7±1,9
Metastasenpunkte (B-16a Tumorzellen [3]; 5 mg/kg peroral daily): 3,8±1,4
Metastasenindex (B-16a Tumorzellen [3]; 0,005 mg/kg peroral daily): 0,78
Metastasenindex (B-16a Tumorzellen [3]; 5 mg/kg peroral daily): 0,63

COc1cc(N2N=C(N)CC2=O)ccc1C [Verbindung E]
Metastasenpunkte (B-16a Tumorzellen [3]; 2 mg/kg peroral daily): 2,7±1,7
Metastasenindex (B-16a Tumorzellen [3]; 2 mg/kg peroral daily): 0,66
Metastasenpunkte (B-16a Tumorzellen [3]; 20 mg/kg peroral daily): 2,5±1,0
Metastasenindex (B-16a Tumorzellen [3]; 20 mg/kg peroral daily): 0,61
Metastasenpunkte (B-16a Tumorzellen [3]; 200mg/kg peroral daily): 2,7±1,5
Metastasenindex (B-16a Tumorzellen [3]; 200mg/kg peroral daily): 0,66

CCCCCCCCCCCCCCCCCC1=NN(c2ccc(Oc3ccccc3)c(S(=O)(=O)O)c2)C(=O)C1 [Verbindung F]
Metastasenpunkte (B-16a Tumorzellen [3]; 2 mg/kg peroral daily): 2,8±1,0
Metastasenindex (B-16a Tumorzellen [3]; 2 mg/kg peroral daily): 0,68
Metastasenpunkte (B-16a Tumorzellen [3]; 20 mg/kg peroral daily): 3,0±1,1
Metastasenindex (B-16a Tumorzellen [3]; 20 mg/kg peroral daily): 0,73
Metastasenpunkte (B-16a Tumorzellen [3]; 200mg/kg peroral daily): 2,6±1,0
Metastasenindex (B-16a Tumorzellen [3]; 200mg/kg peroral daily): 0,63
